Assays:
Settings in all cases: incubation time: 72 h
BT-474 [1] = experiment: normalised response (% of control), CellTox Green; higher = less cell death (100 = DMSO, 0 = benzethonium chloride kill control)
Procedure, shortened: (§1)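 Breast cancer cell lines were exposed for 72 h in 384-well plates to compound at 5 concentrations, 10-fold apart, covering a 10,000-fold range fixed for each compound. Plates were read for CellTox Green fluorescence and CellTiter-Glo luminescence and normalised to 0.1 % DMSO (100) and a positive kill control (0). Each value is the normalised signal at one concentration of the series.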

BT-549 [2] = experiment: as above
Procedure, shortened: as §1

CAL-120 [3] = experiment: as above
Procedure, shortened: as §1

CAL-148 [4] = experiment: as above
Procedure, shortened: as §1

CAL-51 [5] = experiment: as above
Procedure, shortened: as §1

CAL-85-1 [6] = experiment: as above
Procedure, shortened: as §1

DU-4475 [7] = experiment: as above
Procedure, shortened: as §1

HCC1143 [8] = experiment: as above
Procedure, shortened: as §1

HCC1599 [9] = experiment: as above
Procedure, shortened: as §1

HCC1937 [10] = experiment: as above
Procedure, shortened: as §1

HDQ-P1 [11] = experiment: as above
Procedure, shortened: as §1

Hs578T [12] = experiment: as above
Procedure, shortened: as §1

MCF-10A [13] = experiment: as above
Procedure, shortened: as §1

MDA-MB-231 [14] = experiment: as above
Procedure, shortened: as §1

MDA-MB-436 [15] = experiment: as above
Procedure, shortened: as §1

MDA-MB-453 [16] = experiment: as above
Procedure, shortened: as §1

MDA-MB-468 [17] = experiment: as above
Procedure, shortened: as §1

MFM-223 [18] = experiment: as above
Procedure, shortened: as §1

BT-474 [19] = experiment: normalised response (% of control), CellTiter-Glo; higher = more viable cells (100 = DMSO, 0 = benzethonium chloride kill control)
Procedure, shortened: as §1

BT-549 [20] = experiment: as above
Procedure, shortened: as §1

CAL-120 [21] = experiment: as above
Procedure, shortened: as §1

CAL-148 [22] = experiment: as above
Procedure, shortened: as §1

CAL-51 [23] = experiment: as above
Procedure, shortened: as §1

CAL-85-1 [24] = experiment: as above
Procedure, shortened: as §1

DU-4475 [25] = experiment: as above
Procedure, shortened: as §1

HCC1143 [26] = experiment: as above
Procedure, shortened: as §1

HCC1599 [27] = experiment: as above
Procedure, shortened: as §1

HCC1937 [28] = experiment: as above
Procedure, shortened: as §1

HDQ-P1 [29] = experiment: as above
Procedure, shortened: as §1

Hs578T [30] = experiment: as above
Procedure, shortened: as §1

MCF-10A [31] = experiment: as above
Procedure, shortened: as §1

MDA-MB-231 [32] = experiment: as above
Procedure, shortened: as §1

MDA-MB-436 [33] = experiment: as above
Procedure, shortened: as §1

MDA-MB-453 [34] = experiment: as above
Procedure, shortened: as §1

MDA-MB-468 [35] = experiment: as above
Procedure, shortened: as §1

MFM-223 [36] = experiment: as above
Procedure, shortened: as §1

SK-BR-3 = experiment: as above
Procedure, shortened: as §1

Row | SMILES | normalised response (BT-474 [1]) [%] | normalised response (BT-549 [2]) [%] | normalised response (CAL-120 [3]) [%] | normalised response (CAL-148 [4]) [%] | normalised response (CAL-51 [5]) [%] | normalised response (CAL-85-1 [6]) [%] | normalised response (DU-4475 [7]) [%] | normalised response (HCC1143 [8]) [%] | normalised response (HCC1599 [9]) [%] | normalised response (HCC1937 [10]) [%] | normalised response (HDQ-P1 [11]) [%] | normalised response (Hs578T [12]) [%] | normalised response (MCF-10A [13]) [%] | normalised response (MDA-MB-231 [14]) [%] | normalised response (MDA-MB-436 [15]) [%] | normalised response (MDA-MB-453 [16]) [%] | normalised response (MDA-MB-468 [17]) [%] | normalised response (MFM-223 [18]) [%] | normalised response (BT-474 [19]) [%] | normalised response (BT-549 [20]) [%] | normalised response (CAL-120 [21]) [%] | normalised response (CAL-148 [22]) [%] | normalised response (CAL-51 [23]) [%] | normalised response (CAL-85-1 [24]) [%] | normalised response (DU-4475 [25]) [%] | normalised response (HCC1143 [26]) [%] | normalised response (HCC1599 [27]) [%] | normalised response (HCC1937 [28]) [%] | normalised response (HDQ-P1 [29]) [%] | normalised response (Hs578T [30]) [%] | normalised response (MCF-10A [31]) [%] | normalised response (MDA-MB-231 [32]) [%] | normalised response (MDA-MB-436 [33]) [%] | normalised response (MDA-MB-453 [34]) [%] | normalised response (MDA-MB-468 [35]) [%] | normalised response (MFM-223 [36]) [%] | normalised response (SK-BR-3) [%]
1 | CC(C)C[C@@H](C(=O)N[C@H](C(=O)OC1CCCC1)c1ccccc1)[C@H](O)C(=O)NO [Tosedostat] (100 nM) | 102 | 72.1 | 78.6 | 81.6 | 53 | 62.7 | 102 | 86.2 | 104 | 91 | 76.4 | 81.3 | 76 | 30.6 | 68.7 | 102 | -23.4 | 84 | 59.1 | 70 | 79.6 | 94.2 | 77.9 | 74.4 | 91.8 | 83.5 | 85.1 | 77.5 | 90.3 | 91.2 | 101 | 70.2 | 89 | 64.5 | 60.2 | 90.7 | 82.8
2 | COCC1(CO)C(=O)C2CCN1CC2 (centres undefined) [Prima-1 Met] (100 nM) | 101 | 102 | 102 | 106 | 108 | 95.6 | 101 | 83.2 | 114 | 122 | 109 | 104 | 82 | 104 | 86.5 | 102 | 145 | 108 | 96.8 | 106 | 99.3 | 112 | 99.6 | 99.7 | 96.1 | 103 | 119 | 102 | 103 | 101 | 107 | 97.5 | 101 | 104 | 95.8 | 107 | 98.7
3 | COc1cc2c(NC3CCN(C(C)C)CC3)nc(N3CCC(F)(F)CC3)nc2cc1OCCCN1CCCC1 [UNC0642] (100 nM) | 100 | 101 | 101 | 89.8 | 98.1 | 105 | 97.5 | 65.3 | 99.2 | 72.7 | 80.7 | 90.2 | 99.4 | 107 | 63.9 | 108 | 131 | 101 | 103 | 96.5 | 92 | 96.5 | 97.9 | 98.5 | 89.9 | 96.1 | 93.7 | 90.3 | 99.6 | 98.6 | 94.8 | 95 | 97.9 | 108 | 105 | 96.2 | 96
4 | CNC(=O)c1ccc(N2C(=S)N(c3ccc(C#N)c(C(F)(F)F)c3)C(=O)C23CCC3)cc1F [RD162] (100 nM) | 104 | 106 | 104 | 87 | 105 | 101 | 103 | 84.3 | 102 | 107 | 96.8 | 88 | 110 | 113 | 83.4 | 107 | 87.9 | 103 | 94.2 | 97.8 | 103 | 101 | 97.3 | 96.4 | 102 | 101 | 111 | 91.3 | 99.7 | 102 | 116 | 99.7 | 101 | 108 | 108 | 103 | 103
5 | O=C(Nc1cccnc1)N1CCC(Cc2cccc(Oc3ccc(C(F)(F)F)cn3)c2)CC1 [PF-3845] (100 nM) | 104 | 99.9 | 104 | 103 | 110 | 97.5 | 107 | 121 | 113 | 110 | 105 | 87.9 | 107 | 121 | 107 | 104 | 107 | 102 | 103 | 104 | 102 | 113 | 106 | 104 | 102 | 107 | 85 | 103 | 96.7 | 103 | 112 | 115 | 103 | 113 | 107 | 110 | 112
6 | Cc1cc(Nc2cc(CN3CCOCC3)c3nc(C)c(Cc4ccc(Cl)cc4F)n3n2)n[nH]1 [Gandotinib] (100 nM) | 100 | 90 | 89 | 103 | 98.9 | 95 | 99.2 | 108 | 112 | 102 | 109 | 72 | 84.8 | 103 | 100 | 102 | 119 | 105 | 99.9 | 94.4 | 96.1 | 105 | 94.3 | 102 | 101 | 109 | 85.9 | 104 | 110 | 96.3 | 105 | 98.8 | 105 | 104 | 97.9 | 93.4 | 95.6
7 | c1ccc2c(CCNc3ccc(Nc4ccncc4)cc3)c[nH]c2c1 [Serdemetan] (100 nM) | 100 | 103 | 96.9 | 96.1 | 91.4 | 103 | 100 | 104 | 93.7 | 98.8 | 51.9 | 99.5 | 88 | 93.5 | 88.8 | 103 | 83.8 | 93.3 | 90.6 | 101 | 98.2 | 91.8 | 84.5 | 103 | 101 | 99.2 | 122 | 92 | 105 | 93.2 | 95.2 | 98 | 92 | 106 | 95.1 | 99.9 | 98.3

Reference: the supplement of paper PMC4862054
